{"source": "patent US10118954B2", "about": "“Apelin analogues” (University of Ulster, priority 2014, dated 2018)", "key": {"[1]": {"assay": "Degradation of apelin peptides by plasma from fasted normal NIH Swiss mice (rp-HPLC, MALDI-TOF MS)", "assay_type": "in vitro ADME", "protocol": "Degradation of Apelin Peptides by Plasma from Fasted Normal NIH Swiss Mice […] The enzymatic reaction was stopped by adding 50 μl of 10% TFA (0.1% v/v; Sigma-Aldrich Ltd, (Poole, Dorset, UK) and frozen at -20° C. until separation. The terminated reaction products were then applied to an analytical Vydac C-8 column (4.6×150 mm; Phenomenex, Macclesfield, Cheshire, UK) for rp-HPLC analysis. The absorbance was monitored at 214 nm using a […] UV 2000 detector (Thermoquest Limited, Manchester, UK) and the traces were recorded by Thermo Electron ChromQuest data collection software (version 4). HPLC peak fractions were collected manually and subjected to MALDI-TOF mass spectrometry for peptide identification. Degradation profile of various apelin-13 related analogues: plasma incubations (4 h) were separated on a Vydac C-8 analytical HPLC column and all peaks were collected prior to analysis by MALDI-TOF mass spectrometry. Degradation fragments, actual molecular weights (Mr) and retention times (RT) are shown. Theoretical molecular weights of each fragment are shown in brackets. […] Degradation fragments, theoretical molecular weights (Mr) and retention times (RT) are shown. Theoretical molecular weights of each fragment are shown in brackets."}, "[2]": {"test_system": "NIH Swiss mice fed a high-fat diet for 150 days", "assay": "Acute and delayed i.p. glucose tolerance test, blood glucose and plasma insulin", "assay_type": "in vivo", "details": "fatty acid derived agonists", "protocol": "Plasma glucose and plasma insulin concentrations were measured prior to and after i.p. administration of glucose alone (18 mmol/kg body weight), or in combination with apelin analogues (25 nmol/kg body weight) in 18 h fasted mice fed a high-fat diet for 150 days. Values represent mean±SEM for eight mice (n=8). *P<0.05, **P<0.01 and ***P<0.001 compared to glucose alone. FIG. 6 illustrates effect of i.p. administration of glucose alone (18 mmol/kg body weight), ([…])apelin-13 and ([…])apelin-13 alone or in combination (each 25 nmol/kg body weight) on (A) blood glucose and (B) plasma insulin in 18 h fasted mice fed a high-fat diet for 150 days. Values represent mean±SEM for eight mice (n=8). *p<0.05 and **p<0.01 compared to glucose alone, ^+P<0.05 compared to ([…])apelin-13, ^∇P<0.05 and ^∇∇P<0.01 compared to ([…])apelin-13. FIG. 10 illustrates tests conducted 2 h after administration of apelin related analogues (25 nmol/kg body wt) in 18 h fasted mice fed a high-fat diet for 150 days. (A) Blood glucose and (B) plasma insulin was measured before and after i.p. administration of glucose (18 mmol/kg body wt) alone or in combination with apelin analogues. Values represent mean±SEM for eight mice (n=8). *P<0.05 and **P<0.01 compared to glucose alone. FIG. 11 illustrates tests conducted 8 h after administration of apelin related analogues (25 nmol/kg body wt) in 18 h fasted mice fed a high-fat diet for 150 days. (A) Blood glucose and (B) plasma insulin was measured before and after i.p. administration of glucose (18 mmol/kg body wt) alone or in combination with apelin analogues. Values represent mean±SEM for eight mice (n=8). *P<0.05 and **P<0.01 compared to glucose alone. FIG. 12 illustrates acute effects of fatty acid modified apelin analogues on glucose-lowering and insulin release in high fat fed Swiss NIH mice with dietary-induced diabetes. (A) Blood glucose and (B) plasma insulin concentrations were measured prior to and after i.p. administration of glucose alone (18 mmol/kg body weight), or in combination with apelin analogues (25 nmol/kg body weight) in 18 h fasted mice fed a high-fat diet for 150 days. Values represent mean±SEM for eight mice (n=8). *P<0.05, compared to glucose alone. FIG. 13 illustrates tests conducted 16 h after administration of fatty acid apelin analogues (25 nmol/kg body wt) in mice fed a high-fat diet for 150 days. (A) Blood glucose and (B) plasma insulin was measured before and after i.p. administration of glucose (18 mmol/kg body wt) alone or in combination with apelin analogues. Values represent mean±SEM for eight mice (n=8). *P<0.05, **P<0.01 and ***P<0.001 compared to glucose alone. NIH Swiss mice (Harlan UK Ltd., Blackthorne, UK) were derived from a nucleus colony obtained from the National Institute of Health, Bethesda, Md., USA. One group of mice were maintained on a standard rodent diet (10% fat, 30% protein, 60% carbohydrate; percent of total energy 12.99 kJ/g, Trouw Nutrition, Cheshire, UK) and used as a model of normal glycaemia. Other NIH Swiss mice were maintained on a high fat diet (45% fat, 20% protein, 35% carbohydrate; percent of total energy 26.15 […], UK) from 8 weeks of age for 150 days to produce a model of diet induced obesity-diabetes. […] All mice were housed in an air-conditioned room maintained at 22±2° C. with a 12 h light: 12 h dark cycle (08:00-20:00 h), were singly caged, and selected for experimental groups according to body weight and non-fasted blood glucose. Drinking water and diet were freely available. All animal studies were performed in accordance with the UK Animals (Scientific Procedures) Act 1986. For acute in vivo studies, blood samples were collected from the cut tip of the tail vain of fasted, conscious mice into fluoride/heparin coated glucose microcentrifuge tubes (Sarstedt, Germany) immediately prior to (t=0) and at 15, 30, 60 and 105 min following i.p. injection of glucose ([…])."}, "[3]": {"details": "NIH Swiss, mouse, plasma, pH 7.4"}, "[4]": {"details": "16 h delayed i.p. glucose tolerance test, 25 nmol/kg"}, "[5]": {"details": "acute i.p. glucose tolerance test, 25 nmol/kg"}}}
{"smiles": "CCCCCCCCCCCCCCCC(=O)N[C@@H](CCC(=O)NCCCC[C@H](NC(=O)[C@H](Cc1c[nH]cn1)NC(=O)[C@H](CO)NC(=O)[C@H](CC(C)C)NC(=O)[C@H](CCCNC(=N)N)NC(=O)[C@@H]1CCCN1C(=O)[C@H](CCCNC(=N)N)NC(=O)[C@@H](N)CCC(N)=O)C(=O)NCC(=O)N1CCC[C@H]1C(=O)N[C@@H](CCSC)C(=O)N1CCC[C@H]1C(=O)N[C@@H](Cc1ccc(O)cc1)C(=O)O)C(=O)O", "note": "[Lys^8GluPAL(Tyr^13)apelin-13]", "values": [{"measurement": "Rank order of stability", "setting": "[1]", "value": "=1"}, {"measurement": "Half-life (t1/2)", "setting": "[1]; NIH Swiss, mouse, plasma, 263 µg/mL, pH 7.4", "value": ">24", "unit": "h"}, {"measurement": "half-life at 263 µg/mL", "setting": "[1]; [3]", "value": "> 24", "unit": "h"}, {"measurement": "remaining at 4 h, 263 µg/mL", "setting": "[1]; [3]", "value": 100, "unit": "%"}, {"measurement": "Rank order on basis of anti-hyperglycaemic efficacy", "setting": "[2]; 16 h delay", "value": 3}, {"measurement": "Blood glucose as percent of glucose-alone control (lower = stronger glucose lowering)", "setting": "[2]; [4]", "value": 91, "unit": "% ^"}, {"measurement": "Insulin secretion, where glucose alone = 100%", "setting": "[2]; [4]", "value": "126% (*)"}, {"measurement": "Rank order on basis of anti-hyperglycaemic efficacy", "setting": "[2]; acute", "value": 3}, {"measurement": "Glucose lowering, where glucose alone = 100%", "setting": "[2]; [5]", "value": 93, "unit": "%"}, {"measurement": "Insulin secretion, where glucose alone = 100%", "setting": "[2]; [5]", "value": 104, "unit": "%"}]}
